The values below come from PMC12257394, “Design, Synthesis, and Biological Evaluation of Ferrocenyl–Cyclo-(Gly‑L‑Pro) Hybrids Sensitizing Multidrug-Resistant Cancer Cells to Anticancer Agents” (ACS Medicinal Chemistry Letters, 2025).

A value given as a limit tells only on which side of the number the result lay.

Holding throughout (format): cell-based, human
In one data set the test system is SW620C cells. Put plainly: Synergy determination (Bliss model, SynergyFinder), SW620C. The note with it: drug cisplatin + additive; for synergy score: Bliss model. The source says:
(§1) In an ideal setting, the effect of cell exposure to a combination of a chemotherapeutic and an MDR inhibitor should be synergistic. […] The highest synergy scores identified an optimal concentration range where the combination exerted its maximal effect. […] In cisplatin-resistant SW620C cells, the low or lack of synergy observed for most compounds may be due to the additive effects of cisplatin and 4 rather than a true synergistic interaction. […]
(§2) To evaluate the potential interactions between putative ABC inhibitors and anticancer drugs, we utilized the Bliss independence model, as implemented in the SynergyFinder web application.13, 14 Synergy scores and the most synergistic area scores were calculated based on the normalized dose–response matrices. A synergy score below −10 indicates likely […]
(§3) above 10 is indicative of likely synergistic interactions.
(§4) All experiments were performed at least three times, and the data were statistically analyzed

The subject of data set [1] is ABCG2-overexpressing SW620C cells. Put plainly: MDR reversal assay (ERP), SW620C. The note with it: for ERP value, cisplatin + compound: SW620C (xlsx); for ERP = IC50(drug)MDR/IC50(drug+4)MDR: cisplatin, SW620C. The source says: (§5) We investigated the potency of 4a–e to inhibit ABC transporters (ABCB1, ABCC1, and ABCG2) by determining their enhancement of reversal potency (ERP) values. ERP represents fold changes in the IC50 values of anticancer drugs in multidrug-resistant cancer sublines (ABCB1-overexpressing SW620D, SW620E, and SW620V; ABCC1-overexpressing SW620M; ABCG2-overexpressing SW620C and SW620Mito) exposed to a combination of the investigated compounds and anticancer agents at equimolar concentrations, compared with values obtained with drugs alone (Tables S2 and S3 and Figure ).
(§6) Standards. Multidrug-resistant variants of SW620 cells were developed in our laboratory as described previously.10, 11 All cells were cultured under standard conditions (37°C, 5% CO2, 100% humidity) in high-glucose DMEM supplemented with GlutaMaxTM, HEPES (ThermoFisher Scientific, USA), and 10% fetal bovine serum (EURx, Poland). Cells were routinely tested for potential Mycoplasma contamination using the MycoProbe Mycoplasma Detection kit (R&D System, USA).
(§7) In total, 104 cells in 100 µL of complete medium were plated per well of a 96-well plate and left overnight to allow cells to adhere to the surface. Then, the cells were exposed to a desired concentration of tested compound(s). Stock solutions were prepared in DMSO and used immediately. The final DMSO concentration was constant and nontoxic (0.1% v/v). After 70-h incubation, neutral red was added to the final concentration of 1 mM. After another 2 h, the medium was aspirated, and cells were washed twice with PBS. Dye was released using 100 µL of a solubilizer (1% acetic acid in 50% ethanol) on an orbital shaker (10 min). Absorbance was read at 540 nm using EnVision Multilabel Plate Reader (Perkin Elmer, USA). Results were expressed as % of control. The IC50 parameters were calculated using GraphPad Prism version 10 (GraphPad Software, Boston, Massachusetts USA).
(§8) The enhancement of reversal potency (ERP) value determination
(§9) For MDR reversal assays, cytotoxic agents were co-administered with compounds 4a–4e at equimolar concentrations in a range of 10 nM to 100 µM. IC₅₀ values were determined in ABCB1-overexpressing SW620 cell line variants. The enhancement of reversal potency (ERP) was calculated using the following formula: ERP = IC₅₀(drug)MDR / IC₅₀(drug + compound)MDR. All experiments were performed in triplicate (n = 3).

In data set [2] the test system is ABCC1-overexpressing SW620M cells. As to the kind of experiment: MDR reversal assay (ERP), SW620M. Particulars: for ERP value, methotrexate + compound: SW620M (xlsx); for ERP = IC50(drug)MDR/IC50(drug+4)MDR: methotrexate, SW620M.
From the text: as §5, §6, §7, §8, §9

The subject of data set [3] is ABCB1-overexpressing SW620E cells. Put plainly: MDR reversal assay (ERP), SW620E. Particulars: for ERP value, etoposide + compound: SW620E (xlsx); for ERP = IC50(drug)MDR/IC50(drug+4)MDR: etoposide, SW620E.
From the text: as §5, §6, §7, §8, §9

In data set [4] the test system is SW620C cells (cisplatin-resistant). Put plainly: Neutral red uptake viability assay, SW620C. The note with it: for survival rate: n = 3, ± SD; for IC50: read-out: Cytotoxic activity IC50 (95% CI). The procedure: (§10) The normal lung fibroblast MRC-5 and colorectal adenocarcinoma SW620 cell lines used in this experiment were purchased from American Type Culture Collection (USA) via LGC […]
described previously.10, 11 All cells were cultured under standard conditions (37°C, 5% CO2, 100% humidity) in high-glucose DMEM supplemented with GlutaMaxTM, HEPES (ThermoFisher Scientific, USA), and 10% fetal bovine serum (EURx, Poland). Cells were routinely tested for potential Mycoplasma contamination using the MycoProbe Mycoplasma Detection kit (R&D System, USA).
as §7, with “Massachusetts USA). […]” for “Massachusetts USA).”
IC₅₀ values were determined in […]
(§11) All experiments were performed in triplicate (n = 3).

Data set [5] relates to SW620V cells (vincristine-resistant). Put plainly: Neutral red uptake viability assay, SW620V. The note with it: 72 h; for survival rate: n = 3, ± SD; for IC50: n = 3, read-out: Cytotoxic activity IC50 (95% CI). The protocol: (§12) In general, compounds 4a–e exerted little or no cytotoxic effect on either SW620 or multidrug-resistant sublines even at 10 μM, with the remarkable exception of SW620C (cisplatin-selected variant of SW620) cells, which turned out to be relatively susceptible toward ferrocenyl 4a–c. […] This trend may reflect steric or electronic contributions to cellular uptake or interaction with intracellular targets. […] However, since E/Z isomeric data are currently available only for compound 4c, this hypothesis requires validation. To quantify this effect, IC50 values were determined (Table ). […]
as §10, §6, §7, §8, §9

Data set [6] has as its system SW620D cells (doxorubicin-resistant). As to the kind of experiment: Neutral red uptake viability assay, SW620D. Particulars: 72 h; for survival rate: n = 3, ± SD; for IC50: n = 3, read-out: Cytotoxic activity IC50 (95% CI). The protocol: as §12, §10, §6, §7, §8, §9
In data set [7] the test system is ABCB1-overexpressing SW620D cells. Put plainly: MDR reversal assay (ERP), SW620D. Particulars: for ERP value, doxorubicin + compound: SW620D (xlsx); for ERP = IC50(drug)MDR/IC50(drug+4)MDR: doxorubicin, SW620D.
From the text: as §5, §6, §7, §8, §9

For data set [8], the system named is SW620Mito cells (mitoxantrone-resistant). Put plainly: Neutral red uptake viability assay, SW620Mito. Particulars: 72 h; for survival rate: n = 3, ± SD; for IC50: n = 3, read-out: Cytotoxic activity IC50 (95% CI). The procedure: as §12, §10, §6
as §7, with “Massachusetts USA). […]” for “Massachusetts USA).”
as §11

A further data set deals with SW620E cells. Put plainly: Synergy determination (Bliss model, SynergyFinder), SW620E. The note with it: drug etoposide + additive; for synergy score: Bliss model.
From the text: as §1, §2, §3, §4

As a reminder, the IC50 is the concentration at which inhibition is half-maximal. On to `O=C1N/C(=C\c2ccc(-[c-]3cccc3)cc2)C(=O)N2CCC[C@@H]12.[Fe+2].c1cc[cH-]c1` [(S,Z)-4d], for which the “most synergistic area score” value turned out to be 13.42 with SW620C cells and 26.95 in the data set on SW620E cells. Besides, the “ERP value, cisplatin + compound” value in data set [1] is 2.58. Further, the “ERP = IC50(drug)MDR/IC50(drug+4)MDR” value in data set [1] stood at 2.58; in data set [2], 0.84; in [3], 5.84; in data set [7] it was 2.86. Also, the “ERP value, methotrexate + compound” value in [2] was found to be 0.84. The “ERP value, etoposide + compound” value in data set [3] was 5.84. The survival rate is 96 ± 3.6% in data set [4] (SW620C, 1 μM, 72 h); 94 ± 2.9% in data set [5] (1 μM); 95 ± 3.2% in [5] (10 μM); 92 ± 0.8% in data set [6] (1 μM); 96 ± 0.9% in data set [6] (10 μM); 98 ± 0.9% in [8] (1 μM). In data set [8] (10 μM), this compound came in with a survival rate of 93 ± 1.1%. The IC50 is > 100 µM in data set [4] (SW620C, 72 h, n = 3); > 100 µM in [5]; > 100 µM in [6]; > 100 µM in [8]. The “ERP value, doxorubicin + compound” value in data set [7] was 2.86. The synergy score with SW620E cells stood at 16.02.
Take `O=C1N/C(=C\c2ccccc2-[c-]2cccc2)C(=O)N2CCC[C@@H]12.[Fe+2].c1cc[cH-]c1` [(S,Z)-4b]: the “most synergistic area score” value in the data set on SW620C cells is listed as 0.00; with SW620E cells, 14.42. In addition, the synergy score result with SW620C cells is recorded as “–2.78”; with SW620E cells, 3.32. In addition, the “ERP value, cisplatin + compound” value in [1] is on record as 4.53. Also, the “ERP = IC50(drug)MDR/IC50(drug+4)MDR” value in [1] is on record as 4.53; in [2] it was 1.84; in [3], 2.22; in data set [7], 2.34. In addition, in data set [2], the “ERP value, methotrexate + compound” value is recorded as 1.84. Moreover, in data set [3], the “ERP value, etoposide + compound” value is reported as 2.22. Further, the survival rate in data set [4] (SW620C, 1 μM, 72 h) stood at 83 ± 4.2%; in data set [4] (SW620C, 10 μM, 72 h) it was 57 ± 1.1%; in [5] (1 μM), 92 ± 0.9%; in data set [5] (10 μM) it was 95 ± 2.4%; in [6] (1 μM), 97 ± 1.0%; in data set [6] (10 μM), 87 ± 3.0%. The survival rate in data set [8] (1 μM) worked out at 85 ± 1.0%; in data set [8] (10 μM), 85 ± 1.9%. The “Cytotoxic activity IC50 (95% CI)” value in data set [4] (SW620C, 72 h, n = 3) is on record as “low-micromolar”. The IC50 is 12 µM in data set [4] (SW620C, 72 h, n = 3); 48.8 µM in data set [5]; > 100 µM in data set [6]; 44.9 µM in data set [8]. For the same compound, the “ERP value, doxorubicin + compound” value in data set [7] turned out to be 2.34.
On to `O=C1N/C(=C/c2cccc(-[c-]3cccc3)c2)C(=O)N2CCC[C@@H]12.[Fe+2].c1cc[cH-]c1` [(S,E)-4c], for which the “most synergistic area score” value with SW620C cells worked out at 8.86; in the data set on SW620E cells, 1.22. For the same compound, the synergy score is 0.39 in the data set with SW620C cells and “–4.06” with SW620E cells. Further, the “ERP value, cisplatin + compound” value in data set [1] was 3.45. Besides, the “ERP value, methotrexate + compound” value in data set [2] was 1.16. Also, the “ERP = IC50(drug)MDR/IC50(drug+4)MDR” value in [2] was 1.16; in data set [3] it was 0.87; in data set [7] it was 0.77. Further, in data set [3], the “ERP value, etoposide + compound” value stood at 0.87. In addition, in data set [4] (SW620C cells), the “fold higher IC50 value than (S,Z)-4c” value worked out at 13 fold. Moreover, the survival rate came out at 84 ± 0.7% in [4] (SW620C, 1 μM, 72 h); 87 ± 1.1% in data set [4] (SW620C, 10 μM, 72 h); 96 ± 1.8% in [5] (1 μM); 94 ± 0.8% in data set [5] (10 μM); 95 ± 1.5% in data set [6] (1 μM); 95 ± 4.5% in data set [6] (10 μM). In addition, the survival rate in [8] (1 μM) stood at 94 ± 3.5%; in data set [8] (10 μM), 94 ± 1.1%. The half-maximal inhibitory concentration (IC50) in data set [4] (SW620C, 72 h, n = 3) is 62.4 µM; in data set [5], > 100 µM; in data set [6] it was > 100 µM; in data set [8], > 100 µM. Further, the “ERP value, doxorubicin + compound” value in data set [7] was found to be 0.77.
